Reference: PMC7363588, “Mapping of the FGF14:Nav1.6 complex interface reveals FLPK as a functionally active peptide modulating excitability” (Physiological Reports, 2020)
“And” between values parts separate entries of the source, which are not always exact repeats. Identical values can stand only once. “Also recorded” adds a separate entry of the source. Marks after values point to notes of the source that are not given here. Peptide text beside a SMILES is read from it.

Assays:
[1] = biological target: T1, Nav1.6 in the presence of FGF14 (FGF14-1b-GFP) (Homo sapiens, UniProt Q92915); assay: Whole-cell patch-clamp, HEK-Nav1.6 cells expressing FGF14-GFP; assay type: cell-based; settings: 50 μM FLPK
T1 construct: expressed in transfected cells
T1 sequence (Q92915 1-252 isoform Q92915-2): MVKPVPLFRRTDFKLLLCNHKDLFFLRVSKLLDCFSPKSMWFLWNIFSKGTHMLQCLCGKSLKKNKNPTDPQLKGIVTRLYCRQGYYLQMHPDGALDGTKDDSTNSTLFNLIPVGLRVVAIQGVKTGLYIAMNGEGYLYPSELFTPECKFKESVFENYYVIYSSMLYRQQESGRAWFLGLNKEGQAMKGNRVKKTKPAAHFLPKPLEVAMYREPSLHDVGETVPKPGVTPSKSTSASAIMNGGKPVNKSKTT
From the text: (§1) Plasmids used in this study derived from the following clones: human FGF14‐1b isoform (accession number: NM_175929.2) and human Nav1.6 (accession number: NM_014191.3). The CLuc‐FGF14, CD4‐Nav1.6‐NLuc, constructs and the pcDNA3.1 vector (Invitrogen, Carlsbad, CA) were engineered and characterized as previously described (Goetz et al., 2009; Shavkunov et al., 2012,2013,2015; Ali et al., 2016, 2018; Wadsworth et al., 2019). The plasmid pGL3 expressing full length Firefly (Photinus pyralis) luciferase was a gift from Dr. P. Sarkar (Department of Neurology, UTMB). For protein purification studies, cDNAs encoding FGF14‐1b (accession number NP_787125; aa 64–252) or the C‐terminal tail of Nav1.6 (accession number #NP_001171455; aa 1756–1939) were subcloned into suitable pET bacterial expression vectors (pET28a‐FGF14; pET30a‐Nav1.6) with a 6X His‐tag at the N‐terminal site; these plasmids were a gift of Dr. Moosa Mohammadi (NYU, Langone Medical Center). The mutation coding for FGF14^V160A was generated by site‐directed mutagenesis and PCR using FGF14‐1b as a template described previously (Ali et al., 2016). For electrophysiological studies FGF14‐GFP (human) and FGF14‐ΔNT‐GFP (human) were cloned into the GFP plasmid (pQBI‐fC2; Quantum Biotechnology Inc., Montreal, Canada) as previously described.
(§2) HEK293 cells were maintained in DMEM and F‐12 (Invitrogen, Carlsbad, CA), supplemented with 0.05% glucose, 0.5 mM pyruvate, 10% fetal bovine serum, 100 units/ml penicillin, and 100 µg/ml streptomycin (Invitrogen), and incubated at 37 °C with 5% CO2. HEK293 cells stably expressing the human Nav1.6 channel (hereafter referred to as HEK‐Nav1.6 cells) were maintained similarly except for the addition of 500 μg/ml G418 (Invitrogen) to maintain stable Nav1.6 expression. Cells were transfected at 80%–90% confluence with equal amount (1 μg each) of plasmid pairs using Lipofectamine 2000 (Invitrogen) according to manufacturer's instructions. HEK‐Nav1.6 cells were washed and replated at very low density prior to electrophysiological recordings (Ali et al., 2016, 2018; Scala et al., 2018; Wadsworth et al., 2019).
(§3) HEK‐Nav1.6 cells transfected with GFP or FGF14‐GFP were plated at low density on glass cover slips for 3–4 hr and subsequently transferred to the recording chamber. Recordings were performed at room temperature (20–22°C) 24 hr posttransfection using a MultiClamp 700B amplifier (Molecular Devices, Sunnyvale, CA). The composition of recording solutions consisted of the following salts; extracellular (mM): 140 NaCl, 3 KCl, 1 MgCl2, 1 CaCl2, 10 HEPES, 10 glucose, pH 7.3; intracellular (mM): 130 CH3O3SCs, 1 EGTA, 10 NaCl, 10 HEPES, pH 7.3. Membrane capacitance and series resistance were estimated by the dial settings on the amplifier and compensated for electronically by 70%–75%. Data were acquired at 20 kHz and filtered at 5 kHz prior to digitization and storage. All experimental parameters were controlled by Clampex 9.2 software (Molecular Devices) and interfaced to the electrophysiological equipment using a Digidata 1,200 analog‐digital interface (Molecular Devices). Voltage‐dependent inward currents for HEK‐Nav1.6 cells were evoked by depolarization to test potentials between −100 mV and +60 mV from a holding potential of −70 mV followed by a voltage prestep pulse of −120 mV (Nav1.6). Steady‐state (fast) inactivation of Nav channels was measured with a paired‐pulse protocol. From the holding potential, cells were stepped to varying test potentials between −120 mV (Nav1.6) and +20 mV (prepulse) prior to a test pulse to −20 mV.
(§4) Current densities were obtained by dividing Na^+ current (INa) amplitude by membrane capacitance. Current–voltage relationships were generated by plotting current density as a function of the […]. Conductance (GNa) was calculated by the following equation: GNa=INa/Vm‐Erev where INa ^+ is the current amplitude at voltage Vm, and Erev is the Na^+ reversal potential. […]

[2] = test system: Nav1.6 in the presence of FGF14-ΔNT-GFP; assay: Whole-cell patch-clamp, HEK-Nav1.6 cells expressing FGF14-ΔNT-GFP; assay type: cell-based, human; settings: 50 μM FLPK
From the text: as §1, §2, §3, §4

CC(=O)N[C@@H](Cc1ccccc1)C(=O)N[C@@H](CC(C)C)C(=O)N1CCC[C@H]1C(=O)N[C@@H](CCCCN)C(N)=O [FLPK] (Ac-FLPK-NH2)
Peak density (I Na) ([1]; FGF14-GFP, at −10 mV, mean ± SEM (n = 21), DMSO −16.8 ± 3.3, p < .05 vs FGF14-GFP (DMSO)): −49.6 ± 7.2 pA/pF and −49.6 ± 7.2 (21) ^c pA/pF
Kact ([1]; FGF14-GFP, mean ± SEM (n = 11), DMSO 5.7 ± 0.4): 5.7 ± 0.5 (11) ^h,i mV
Activation (V1/2) ([1]; FGF14-GFP, mean ± SEM (n = 11), DMSO −16.6 ± 1.0): −20.8 ± 1.5 mV and −20.8 ± 1.5 (11) mV
Steady-state Inactivation (V1/2) ([1]; FGF14-GFP, mean ± SEM (n = 11 in Table 3; n = 14 in text), DMSO −54.9 ± 1.1): −59.2 ± 2.1 (11) mV
Kinact ([1]; FGF14-GFP, mean ± SEM (n = 14), DMSO 5.9 ± 0.9): 5.9 ± 0.6 (14) mV
shift of V1/2 of activation vs DMSO control ([1]; FGF14 wild type, hyperpolarizing direction): −4 mV
effect on FGF14-dependent phenotypes of Nav1.6 currents ([1]; HEK-Nav1.6 FGF14-GFP): effectively restored I Na to values that were statistically comparable to the GFP + DMSO control; also recorded: inhibited previously reported modulatory effects of FGF14 (1b isoform) on Nav1.6 currents
effect on Nav1.6 currents in absence of FGF14 N-terminal domain ([2]; FGF14-ΔNT-GFP): insensitive to FLPK; also recorded: no effects on any other parameters associated with FGF14‐GFP regulation; also recorded: unaffected by FLPK
Tau (τ), decay time constant of I Na ([2]; ΔNT-FGF14-GFP, at −10 mV, mean ± SEM (n = 11), DMSO 1.091 ± 0.07): 1.137 ± 0.08 (11) ms
Kact ([2]; ΔNT-FGF14-GFP, mean ± SEM (n = 11), DMSO 4.61 ± 0.3): 1.63 ± 0.23 (11) mV
Kinact ([2]; ΔNT-FGF14-GFP, mean ± SEM (n = 11), DMSO 6.4 ± 0.44): 6.75 ± 0.32 (11) mV
Activation (V1/2) ([2]; ΔNT-FGF14-GFP, mean ± SEM (n = 11), DMSO –21.2 ± 0.36, p < .001): –37.43 ± 0.3 (11) ^ l , ^ o,p,q mV
Steady-state Inactivation (V1/2) ([2]; ΔNT-FGF14-GFP, mean ± SEM (n = 11), DMSO –70.2 ± 0.53): –68.3 ± 0.34 (11) ^o,p,q mV
